Numbers after ± are expanded uncertainties.
Assay: xn = mol fraction of the nth substance listed
Conditions: Liquid; for viscosity: Concentric cylinders viscometry; for mass density: Vibrating tube method

## Cc1ccc(C)c(C)c1 [1,2,4-trimethylbenzene] + CCC(C)O
323.15 K, 100 kPa, x2 = 0.7001
  viscosity: 0.78 ± 0.017 mPa·s
323.15 K, 100 kPa, x2 = 0.7997
  viscosity: 0.88 ± 0.019 mPa·s
323.15 K, 100 kPa, x2 = 0.9001
  viscosity: 1.04 ± 0.022 mPa·s
333.15 K, 100 kPa, x2 = 0
  viscosity: 0.562 ± 0.012 mPa·s
  mass density: 843.6 ± 0.7 kg/m3
333.15 K, 100 kPa, x2 = 0.1001
  viscosity: 0.558 ± 0.012 mPa·s
333.15 K, 100 kPa, x2 = 0.2261
  viscosity: 0.554 ± 0.012 mPa·s
333.15 K, 100 kPa, x2 = 0.3
  viscosity: 0.548 ± 0.012 mPa·s
333.15 K, 100 kPa, x2 = 0.3966
  viscosity: 0.568 ± 0.013 mPa·s
333.15 K, 100 kPa, x2 = 0.5298
  viscosity: 0.567 ± 0.012 mPa·s
333.15 K, 100 kPa, x2 = 0.6001
  viscosity: 0.6 ± 0.013 mPa·s
333.15 K, 100 kPa, x2 = 0.7001
  viscosity: 0.65 ± 0.014 mPa·s
333.15 K, 100 kPa, x2 = 0.7997
  viscosity: 0.72 ± 0.016 mPa·s
333.15 K, 100 kPa, x2 = 0.9001
  viscosity: 0.82 ± 0.018 mPa·s
333.15 K, 100 kPa, x2 = 0.1
  mass density: 835.7 ± 0.7 kg/m3
333.15 K, 100 kPa, x2 = 0.1989
  mass density: 829.2 ± 0.7 kg/m3
333.15 K, 100 kPa, x2 = 0.3011
  mass density: 822.5 ± 0.7 kg/m3
333.15 K, 100 kPa, x2 = 0.4002
  mass density: 816 ± 0.7 kg/m3
333.15 K, 100 kPa, x2 = 0.5001
  mass density: 809.8 ± 0.7 kg/m3
333.15 K, 100 kPa, x2 = 0.5997
  mass density: 802.2 ± 0.7 kg/m3
333.15 K, 100 kPa, x2 = 0.6999
  mass density: 794.7 ± 0.7 kg/m3
333.15 K, 100 kPa, x2 = 0.7999
  mass density: 787.1 ± 0.7 kg/m3
333.15 K, 100 kPa, x2 = 0.9
  mass density: 779.1 ± 0.7 kg/m3
333.15 K, 1000 kPa, x2 = 0
  mass density: 844.4 ± 0.7 kg/m3
333.15 K, 1000 kPa, x2 = 0.1
  mass density: 836.5 ± 0.7 kg/m3
333.15 K, 1000 kPa, x2 = 0.1989
  mass density: 830 ± 0.7 kg/m3
333.15 K, 1000 kPa, x2 = 0.3011
  mass density: 823.3 ± 0.7 kg/m3
333.15 K, 1000 kPa, x2 = 0.4002
  mass density: 816.8 ± 0.7 kg/m3
333.15 K, 1000 kPa, x2 = 0.5001
  mass density: 810.7 ± 0.7 kg/m3
333.15 K, 1000 kPa, x2 = 0.5997
  mass density: 803.1 ± 0.7 kg/m3
333.15 K, 1000 kPa, x2 = 0.6999
  mass density: 795.6 ± 0.7 kg/m3
333.15 K, 1000 kPa, x2 = 0.7999
  mass density: 788 ± 0.7 kg/m3
333.15 K, 1000 kPa, x2 = 0.9
  mass density: 780 ± 0.7 kg/m3
333.15 K, 2000 kPa, x2 = 0
  mass density: 845.2 ± 0.7 kg/m3
333.15 K, 2000 kPa, x2 = 0.1
  mass density: 837.4 ± 0.7 kg/m3
333.15 K, 2000 kPa, x2 = 0.1989
  mass density: 830.9 ± 0.7 kg/m3
333.15 K, 2000 kPa, x2 = 0.3011
  mass density: 824.2 ± 0.7 kg/m3
333.15 K, 2000 kPa, x2 = 0.4002
  mass density: 817.8 ± 0.7 kg/m3
333.15 K, 2000 kPa, x2 = 0.5001
  mass density: 811.7 ± 0.7 kg/m3
333.15 K, 2000 kPa, x2 = 0.5997
  mass density: 804 ± 0.7 kg/m3
333.15 K, 2000 kPa, x2 = 0.6999
  mass density: 796.6 ± 0.7 kg/m3
333.15 K, 2000 kPa, x2 = 0.7999
  mass density: 789 ± 0.7 kg/m3
333.15 K, 2000 kPa, x2 = 0.9
  mass density: 781 ± 0.7 kg/m3
333.15 K, 5000 kPa, x2 = 0
  mass density: 847.6 ± 0.7 kg/m3
333.15 K, 5000 kPa, x2 = 0.1
  mass density: 840 ± 0.7 kg/m3
333.15 K, 5000 kPa, x2 = 0.1989
  mass density: 833.5 ± 0.7 kg/m3
333.15 K, 5000 kPa, x2 = 0.3011
  mass density: 826.9 ± 0.7 kg/m3
333.15 K, 5000 kPa, x2 = 0.4002
  mass density: 820.4 ± 0.7 kg/m3
333.15 K, 5000 kPa, x2 = 0.5001
  mass density: 814.4 ± 0.7 kg/m3
333.15 K, 5000 kPa, x2 = 0.5997
  mass density: 806.9 ± 0.7 kg/m3
333.15 K, 5000 kPa, x2 = 0.6999
  mass density: 799.5 ± 0.7 kg/m3
333.15 K, 5000 kPa, x2 = 0.7999
  mass density: 791.9 ± 0.7 kg/m3
333.15 K, 5000 kPa, x2 = 0.9
  mass density: 784 ± 0.7 kg/m3
333.15 K, 10000 kPa, x2 = 0
  mass density: 851.4 ± 0.7 kg/m3
333.15 K, 10000 kPa, x2 = 0.1
  mass density: 843.9 ± 0.7 kg/m3
333.15 K, 10000 kPa, x2 = 0.1989
  mass density: 837.6 ± 0.7 kg/m3
333.15 K, 10000 kPa, x2 = 0.3011
  mass density: 831.1 ± 0.7 kg/m3
333.15 K, 10000 kPa, x2 = 0.4002
  mass density: 824.7 ± 0.7 kg/m3
333.15 K, 10000 kPa, x2 = 0.5001
  mass density: 818.7 ± 0.7 kg/m3
333.15 K, 10000 kPa, x2 = 0.5997
  mass density: 811.3 ± 0.7 kg/m3
333.15 K, 10000 kPa, x2 = 0.6999
  mass density: 803.9 ± 0.7 kg/m3
333.15 K, 10000 kPa, x2 = 0.7999
  mass density: 796.5 ± 0.7 kg/m3
333.15 K, 10000 kPa, x2 = 0.9
  mass density: 788.6 ± 0.7 kg/m3
333.15 K, 15000 kPa, x2 = 0
  mass density: 855.1 ± 0.7 kg/m3
333.15 K, 15000 kPa, x2 = 0.1
  mass density: 847.9 ± 0.7 kg/m3
333.15 K, 15000 kPa, x2 = 0.1989
  mass density: 841.6 ± 0.7 kg/m3
333.15 K, 15000 kPa, x2 = 0.3011
  mass density: 835.1 ± 0.7 kg/m3
333.15 K, 15000 kPa, x2 = 0.4002
  mass density: 828.8 ± 0.7 kg/m3
333.15 K, 15000 kPa, x2 = 0.5001
  mass density: 822.9 ± 0.7 kg/m3
333.15 K, 15000 kPa, x2 = 0.5997
  mass density: 815.5 ± 0.7 kg/m3
333.15 K, 15000 kPa, x2 = 0.6999
  mass density: 808.2 ± 0.7 kg/m3
333.15 K, 15000 kPa, x2 = 0.7999
  mass density: 800.8 ± 0.7 kg/m3
333.15 K, 15000 kPa, x2 = 0.9
  mass density: 793 ± 0.7 kg/m3
333.15 K, 20000 kPa, x2 = 0
  mass density: 858.6 ± 0.7 kg/m3
333.15 K, 20000 kPa, x2 = 0.1
  mass density: 851.6 ± 0.7 kg/m3
333.15 K, 20000 kPa, x2 = 0.1989
  mass density: 845.4 ± 0.7 kg/m3
333.15 K, 20000 kPa, x2 = 0.3011
  mass density: 839 ± 0.7 kg/m3
333.15 K, 20000 kPa, x2 = 0.4002
  mass density: 832.7 ± 0.7 kg/m3
333.15 K, 20000 kPa, x2 = 0.5001
  mass density: 826.9 ± 0.7 kg/m3
333.15 K, 20000 kPa, x2 = 0.5997
  mass density: 819.5 ± 0.7 kg/m3
333.15 K, 20000 kPa, x2 = 0.6999
  mass density: 812.3 ± 0.7 kg/m3
333.15 K, 20000 kPa, x2 = 0.7999
  mass density: 805 ± 0.7 kg/m3
333.15 K, 20000 kPa, x2 = 0.9
  mass density: 797.2 ± 0.7 kg/m3
333.15 K, 30000 kPa, x2 = 0
  mass density: 865.3 ± 0.7 kg/m3
333.15 K, 30000 kPa, x2 = 0.1
  mass density: 858.6 ± 0.7 kg/m3
333.15 K, 30000 kPa, x2 = 0.1989
  mass density: 852.5 ± 0.7 kg/m3
333.15 K, 30000 kPa, x2 = 0.3011
  mass density: 846.2 ± 0.7 kg/m3
333.15 K, 30000 kPa, x2 = 0.4002
  mass density: 840.1 ± 0.8 kg/m3
333.15 K, 30000 kPa, x2 = 0.5001
  mass density: 834.4 ± 0.8 kg/m3
333.15 K, 30000 kPa, x2 = 0.5997
  mass density: 827.1 ± 0.8 kg/m3
333.15 K, 30000 kPa, x2 = 0.6999
  mass density: 819.9 ± 0.8 kg/m3
333.15 K, 30000 kPa, x2 = 0.7999
  mass density: 812.7 ± 0.8 kg/m3
333.15 K, 30000 kPa, x2 = 0.9
  mass density: 805 ± 0.8 kg/m3
333.15 K, 40000 kPa, x2 = 0
  mass density: 871.6 ± 0.8 kg/m3
333.15 K, 40000 kPa, x2 = 0.1
  mass density: 865.1 ± 0.8 kg/m3
333.15 K, 40000 kPa, x2 = 0.1989
  mass density: 859.1 ± 0.8 kg/m3
333.15 K, 40000 kPa, x2 = 0.3011
  mass density: 852.9 ± 0.8 kg/m3
333.15 K, 40000 kPa, x2 = 0.4002
  mass density: 846.8 ± 0.8 kg/m3
333.15 K, 40000 kPa, x2 = 0.5001
  mass density: 841.2 ± 0.8 kg/m3
333.15 K, 40000 kPa, x2 = 0.5997
  mass density: 834.1 ± 0.8 kg/m3
333.15 K, 40000 kPa, x2 = 0.6999
  mass density: 826.9 ± 0.8 kg/m3

— the NIST ThermoML archive (doi:10.1016/j.jct.2017.03.006)
